PubChem BioAssay AID2765 (Broad Institute, 2010)
Activity calls are given as the source filed them.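 Rule for the calls: active = half-maximal concentration for the rise in caspase light signal at or below ten times the top tested dose; inconclusive = flat fit between 30% and 70% activity, or unreliable curve fit; inactive = the rest.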

Tested on: MEF A1-2A-BIM cells, caspase 3/7 luminescence, 3 h
Assay: inducers of caspase signal in A1-dependent MEFs – cell-based, luminescence, retest, A1 inhibitor project, dose response (AID 2765)

Cc1cc(C(=O)Nc2cccc3c2O[C@@H](CN(C)S(=O)(=O)c2ccccc2)[C@H](C)CN([C@@H](C)CO)C3=O)n(C)n1
EC50: > 35 µM (inactive)

CCn1c(C)[n+](CCOC(C)=O)c2cc(Cl)c(Cl)cc21
EC50: > 35 µM (inactive)

COc1ccccc1NC(=O)CC1COc2ccccc2O1 (stereo not drawn)
EC50: > 35 µM (inactive)

C=C1C(=O)O[C@H]2C[C@@H](C)[C@@H]3C=CC(=O)[C@@]3(C)C[C@H]12
EC50: > 35 µM (inactive)

O=[N+]([O-])c1ccccc1S(=O)(=O)N1CCN(S(=O)(=O)c2ccc3c(c2)OCCO3)CC1
EC50: > 35 µM (inactive)

COc1cc(NC(=O)c2cccs2)ccc1NC(=O)c1cc2ccccc2o1
EC50: > 35 µM (inactive)

CCOc1ccc(Nc2cc(C)nc3nc(C)nn23)cc1
EC50: > 35 µM (inactive)

Cc1cccc(C)c1NC(=O)c1cnccn1
EC50: > 35 µM (inactive)

CC(Oc1ccc(-c2nccc(-c3ccccn3)n2)cc1)C(=O)NN (stereo not drawn)
EC50: > 35 µM (inactive)

Cc1c(C(c2ccccc2O)c2c(C)n(C)n(-c3ccccc3)c2=O)c(=O)n(-c2ccccc2)n1C
EC50: > 35 µM (inactive)

O=C(C1=NN[C@@H]2C(=O)N(Cc3ccccc3)C(=O)[C@H]12)c1ccc(F)cc1
EC50: > 35 µM (inactive)

NC(=O)OCCCc1ccccc1
EC50: > 35 µM (inactive)

Cc1cc(=O)n2nc(N3CCCC(C(=O)NCCc4ccc(Cl)cc4)C3)sc2n1 (stereo not drawn)
EC50: > 35 µM (inactive)

CC(C)CC(NC(=O)c1ccc(Cl)cc1)C(=O)OCC(=O)c1ccc2c(c1)NC(=O)CO2 (stereo not drawn)
EC50: 5.35 µM

COc1cc(C(=O)NCc2cc(C)nc3ccccc23)cc(OC)c1OC
EC50: > 35 µM (inactive)

Nc1nonc1-c1nc2ccccc2n1CC(=O)NC1CCCC1
EC50: > 35 µM (inactive)

N#Cc1cc(C(=O)c2cc(Br)ccc2O)cn(C2CC2)c1=O
EC50: > 35 µM (inactive)

COc1ccc(-c2ccc(NS(=O)(=O)c3cc([N+](=O)[O-])c(C)c([N+](=O)[O-])c3)cc2)nn1
EC50: > 35 µM (inactive)

CCC(C)Nc1nnc(SCC(=O)c2c(N)n(C3CC3)c(=O)[nH]c2=O)s1 (stereo not drawn)
EC50: > 35 µM (inactive)

Cc1ccc(NC(=O)c2ccc(N/N=C/c3cccc(O)c3)c([N+](=O)[O-])c2)cc1
EC50: 21.5 µM

CN(C(=O)CSc1nnc(C(F)(F)F)n1N)C1CCS(=O)(=O)C1 (stereo not drawn)
EC50: > 35 µM (inactive)

CC(C)CCN(C(=O)Cc1ccc(Cl)c(Cl)c1)c1c(N)n(Cc2ccccc2)c(=O)[nH]c1=O
EC50: 12 µM

Cc1ccc(/C=C/C(=O)c2ccc([N+](=O)[O-])o2)cc1
EC50: > 35 µM (inactive)

COc1ccc(C(CNC(=O)c2cc(S(=O)(=O)NCc3ccco3)ccc2C)N(C)C)cc1 (stereo not drawn)
EC50: > 35 µM (inactive)

CC1=NNC(=O)/C1=C\c1cn(-c2ccccc2)nc1-c1cccs1
EC50: 15.1 µM

CSc1ccc(CNC(=O)Cn2nc(C)c3c(C)n(-c4ccc(C)cc4)nc3c2=O)cc1
EC50: > 35 µM (inactive)

Cn1c(SCc2ccccc2)nc(N)c(N=O)c1=O
EC50: > 35 µM (inactive)

COc1ccc(OC)c(NC(=O)CSc2nnc(CNC(=O)COc3ccc(Cl)cc3)o2)c1
EC50: > 35 µM (inactive)

NS(=O)(=O)c1ccc(NC(=O)c2ccc3c(c2)CCCC3)cc1
EC50: > 35 µM (inactive)

O=C(N/N=C\c1cccc(Cl)c1)c1ccc(Cn2cccn2)o1
EC50: > 35 µM (inactive)

COc1ccc(N2CCN(C3CCCN(Cc4cccc(C(C)=O)c4)C3)CC2)cc1 (stereo not drawn)
EC50: > 35 µM (inactive)

Cc1ccc(NC(=O)c2cccc(S(=O)(=O)NCc3ccccc3)c2)nc1
EC50: > 35 µM (inactive)

CCOC(=O)c1ccc(NS(=O)(=O)c2ccc3c(c2)CCCN3C(C)=O)cc1
EC50: > 35 µM (inactive)

N#CCn1nnc(-c2ccc3c(c2)OCO3)n1
EC50: > 35 µM (inactive)

O=C(/C=C/c1cccc(Cl)c1)c1ccc([N+](=O)[O-])o1
EC50: > 35 µM (inactive)

CCc1nn(-c2cc(Oc3cccc4ccccc34)nc(-c3ccccc3)n2)c(N)c1C#N
EC50: > 35 µM (inactive)

CC1(C)CC(=O)c2cc3c(N)c(C(=O)NCc4ccccc4)sc3nc2C1
EC50: > 35 µM (inactive)

Cc1ccc(C(=O)NCC(=O)OC(C)C(=O)Nc2ccc(N(C)C)cc2)s1 (stereo not drawn)
EC50: > 35 µM (inactive)

COc1ccc(NC(=O)/C(Cl)=C(/Cl)S(=O)Cc2ccc(C)cc2)cn1 (stereo not drawn)
EC50: > 35 µM (inactive)

CS(=O)(=O)c1sc(C#N)c2c1C(=O)CC(c1ccccc1)C2 (stereo not drawn)
EC50: > 35 µM (inactive)

C=CCn1c(SCC(=O)NC23CC4CC(CC(C4)C2)C3)nc(O)cc1=O
EC50: > 35 µM (inactive)

CC(=O)c1ccc(NC(=O)CO/N=C(\C)c2cccs2)cc1
EC50: > 35 µM (inactive)

O=C(NCc1cccnc1)[C@@H]1CC=C[C@@H]2CCN(Cc3ccccc3)C(=O)[C@@H]21
EC50: > 35 µM (inactive)

COc1ccc(NC(=O)CSc2nc3ccc(Nc4nc(N5CCOCC5)nc(N5CCOCC5)n4)cc3s2)cc1
EC50: > 35 µM (inactive)

Cc1nccc2c1[nH]c1ccccc12
EC50: > 35 µM (inactive)

CCN(C(=O)CSc1nc2ccccc2n1CC)C1CCS(=O)(=O)C1 (stereo not drawn)
EC50: > 35 µM (inactive)

CN(C)CCCN(C(=O)c1ccc([N+](=O)[O-])s1)c1nc2cc3c(cc2s1)OCCO3
EC50: > 16 µM (inactive)

O=C(COC(=O)c1ccccc1Br)NC1CCCCCCC1
EC50: > 35 µM (inactive)

Cc1occc1-c1nnc(SCC(=O)NCCc2ccccc2)n1Cc1ccccc1
EC50: > 35 µM (inactive)

Cc1ccc(NC(=O)c2cc(N3C(=O)C=CC3=O)ccc2N2CCOCC2)cc1Cl
EC50: > 35 µM (inactive)

CCc1cccc(N(CC(=O)NCc2ccc(F)cc2)C(=O)c2csnn2)c1
EC50: > 35 µM (inactive)

C#CCn1ccc(O)c(Cc2ccccc2)c1=O
EC50: > 35 µM (inactive)

CN(Cc1ccc(F)cc1)C(=O)CNC(=O)C1CCCCC1
EC50: > 35 µM (inactive)

CC(C)N=c1scc(-c2ccco2)n1/N=C/c1ccc(O)c(O)c1
EC50: > 35 µM (inactive)

O=C(NNC(=O)c1cc(C(F)(F)F)cc(C(F)(F)F)c1)c1ccc(Cl)cc1
EC50: > 35 µM (inactive)

COc1ccc2c(c1)[nH]c1c(=O)n(/N=C/C3C(C)C=C(C)CC3C)c(=O)[nH]c12 (stereo not drawn)
EC50: > 35 µM (inactive)

CCOC(=O)/C(=C\c1ccc(OC)c(OC)c1)C(=O)c1cccnc1
EC50: > 35 µM (inactive)

CC(=O)Nc1ncnc2c1c(-c1ccc(Cl)cc1)nn2C(C)(C)C
EC50: > 35 µM (inactive)

CCOc1cc(/C=C\[N+](=O)[O-])ccc1OCC(=O)Nc1ccccc1C
EC50: 3.67 µM

CC(C)CNC(=S)N(Cc1ccco1)Cc1cc2cc3c(cc2[nH]c1=O)OCCO3
EC50: > 35 µM (inactive)

O=C(COc1ccc(/C=N/NC(=O)c2cc3ccccc3o2)cc1Br)Nc1ccccc1
EC50: 31.2 µM

COc1cc2sc(-c3ccc(S(C)(=O)=O)cc3)c(C(=O)NCCCCO)c2cc1OC
EC50: > 35 µM (inactive)

Cc1cc(=O)oc2c3c(cc(OCC(=O)N[C@@H](CC(C)C)C(=O)O)c12)OC(C)(C)CC3
EC50: > 35 µM (inactive)

Cc1[nH]n(-c2cccc(Cl)c2)c(=O)c1C=NC12CN3CN(CN(C3)C1)C2
EC50: > 35 µM (inactive)

CN(c1ccccc1)c1ccc(/C=C/[N+](=O)[O-])cc1
EC50: 12.6 µM

Cc1ccc(NC(=O)Cn2c(=O)cnc3ccccc32)cc1S(=O)(=O)N1CCOCC1
EC50: > 35 µM (inactive)

COc1cc(CN2CCc3ccccc3C2)ccc1O
EC50: > 35 µM (inactive)

NS(=O)(=O)c1ccc(CCNC(=O)CN2CCN(S(=O)(=O)c3ccccc3F)CC2)cc1
EC50: > 35 µM (inactive)
